Reference: patent US5759768A, “Assays for factors affecting circularization of DNA, assays for factors affecting DNA integration, factors, and uses thereof” (priority 1995, dated 1998)

The compounds below were run on linear viral DNA (circularization). Conditions: 1 mM, 37° C., 45 min.
Assay type: biochemical, HIV-1
Experimental: The chronically HIV-1 infected Molt IIIB human T cell line (HTLV IIIB virus strain) was the source of virus for cell-free infections. This human T cell line constitutively produces a low level of the HTLV-111B strain of HIV-1. Culture supernatant containing a high concentration of virus was prepared by incubating 300×10^6 Molt IIIB cells in 50 ml fresh RPMI 1640 medium containing 20% fetal calf serum and 10 ng of phorbol 12-myristate 13-acetate per ml for 20-24 hours. […] Cytoplasmic extracts (3 ml) were prepared 4-4.5 hours post-infection, by a modification of the procedure of Brown et al., Cell 49: 342-356 (1987).
At specified times after infection, cells were washed twice with buffer K (20 mM Hepes, pH 7.4, 150 mM KCl, 5 mM MgCl2, 1 mM dithiothreitol, […]) and then lysed at a concentration of 33×10^6 cells per ml in the same buffer containing 0.025% digitonin or 0.025% Triton X-100. Cells were extracted for 10 minutes at room temperature, and the lysate was centrifuged at 1000×g for 3 minutes, and is referred to as "cytoplasmic extract". Cytoplasmic extract was the source of viral DNA for analyses in the assays described below. The pellet from the initial low-speed centrifugation contained cell debris and intact nuclei and is called the "nuclear pellet". Cell extracts from uninfected SupT1 cells were prepared in the same manner.
Viral DNA present in cytoplasmic extracts was deproteinated by incubation with proteinase K (1 mg/ml)/10 mM EDTA/0.5% SDS for 1 hour at 55° C. Samples were extracted successively with phenol/chloroform [1:1 (vol/vol)] and chloroform. DNA was ethanol-precipitated, washed with 70% ethanol, resuspended in 10 mM Tris.HCI (pH 7.4), and treated with RNase A (20 μpg/ml)for 1 hour at […]. before analysis by agarose gel electrophoresis and Southern blotting.
DNA samples were layered on 0.8% agarose gels and electrophoresed at 1 V/cm for 15 hour in Tris/acetate/EDTA buffer. After electrophoresis, DNA was blotted by capillary action onto nitrocellulose (0.45 μm, Schleicher & Schuell).
Cell extracts were prepared from cells four to five hours after infection with HIV-1, using the above-described methods to yield fully functional viral preintegration complexes. […] In all cases, a HIV-1 LTR-containing DNA fragment was used as a hybridization probe. Therefore, only LTR-containing DNA fragments are detected. […] Lane 5: Unintegrated viral DNA prepared by Hirt extraction of SupT1 cells infected 24 hours earlier with concentrated HIV-1. […] Viral DNA was purified from extracts incubated with 1 mM ATP for 15 minutes (lanes 1 and 4), with 1 mM ATP for 45 minutes (lanes 3 and 6), or with 1 mM ATPγS for 45 minutes (lanes 2 and 5). Lanes 1-3: uncut viral DNA; lanes 4-6: viral DNA was cut with SalI prior to electrophorosis. Lane 7: linear viral DNA, prepared from untreated extracts was digested with SalI prior to electrophorosis. Lane 8: unintegrated viral DNA prepared by Hirt extraction of infected cells, as described with respect to FIG. 14, digested with SalI prior to electrophoresis. […] Lanes 1-3. Viral DNA prepared from extracts treated with 1 mM ATP for 15 minutes, 30 minutes and 45 minutes, respectively. Lane 4: Viral DNA prepared from extract treated with 1 mM ATPγS for 45 minutes. Lanes 5-7: products of reactions shown in lanes 1-3, respectively, digested with SalI and PstI prior to electrophoresis. Lane 8: SalI, PstI digestion of viral DNA prepared from extract treated with 1 mM ATP for 90 minutes. Lane 9: SalI, PstI digestion of reaction products shown in lane 4. Lane 10: SalI, PstI digestion of unintegrated viral DNA prepared by Hirt extraction of infected cells.

| Structure (SMILES) | circular DNA forms observed | induction of 1-LTR circular form | induction of 2-LTR circles |
| --- | --- | --- | --- |
| Nc1ncnc2c1ncn2[C@@H]1O[C@H](COP(=O)(O)OP(=O)(O)O)[C@@H](O)[C@H]1O [ADP] | No circular DNA forms were observed |  |  |
| Nc1ncnc2c1ncn2[C@@H]1O[C@H](COP(=O)(O)O)[C@@H](O)[C@H]1O [AMP] | No circular DNA forms were observed |  |  |
| Nc1nc2c(ncn2[C@@H]2O[C@H](COP(=O)(O)OP(=O)(O)O)[C@@H](O)[C@H]2O)c(=O)[nH]1 [GDP] | No circular DNA forms were observed |  |  |
| Nc1nc2c(ncn2[C@@H]2O[C@H](COP(=O)(O)OP(=O)(O)OP(=O)(O)O)[C@@H](O)[C@H]2O)c(=O)[nH]1 [GTP, guanosine triphosphate] |  | induced the formation of only a small amount of the 1-LTR circular form | induced the formation of 2-LTR circles |
| Nc1ncnc2nc[nH]c12 [adenine] | No circular DNA forms were observed |  |  |
| Nc1ncnc2c1ncn2[C@@H]1O[C@H](CO)[C@@H](O)[C@H]1O [adenosine] | No circular DNA forms were observed |  |  |
| Nc1ncnc2c1ncn2[C@@H]1O[C@H](CO)C[C@H]1O [cordycepin, 3'-deoxyadenosine] | No circular DNA forms were observed |  |  |
| Nc1cc[nH]c(=O)n1 [cytosine] | No circular DNA forms were observed |  |  |
| Nc1nc2c(ncn2[C@H]2CC[C@@H](COP(=O)(O)OP(=O)(O)OP(=O)(O)O)O2)c(=O)[nH]1 [dd-GTP] |  | unable to induce detectable amounts of the 1-LTR circular forms | induced the formation of 2-LTR circles |
| Nc1ncnc2c1ncn2[C@H]1CC[C@@H](COP(=O)(O)OP(=O)(O)OP(=O)(O)O)O1 [ddATP, dideoxyadenesine triphosphate] |  | unable to induce detectable amounts of the 1-LTR circular forms | induced the formation of 2-LTR circles |
| Nc1ccn([C@H]2CC[C@@H](COP(=O)(O)OP(=O)(O)OP(=O)(O)O)O2)c(=O)n1 [ddCTP] |  | unable to induce detectable amounts of the 1-LTR circular forms | induced the formation of 2-LTR circles |
| Cc1cn([C@H]2CC[C@@H](COP(=O)(O)OP(=O)(O)OP(=O)(O)O)O2)c(=O)[nH]c1=O [ddTTP] |  | unable to induce detectable amounts of the 1-LTR circular forms | induced the formation of 2-LTR circles |
| Nc1nc2nc[nH]c2c(=O)[nH]1 [guanine] | No circular DNA forms were observed |  |  |
| Nc1nc2c(ncn2[C@@H]2O[C@H](CO)[C@@H](O)[C@H]2O)c(=O)[nH]1 [guanosine] | No circular DNA forms were observed |  |  |
| O=c1cc[nH]c(=O)[nH]1 [uracil] | No circular DNA forms were observed |  |  |
